Measurements as given in US9861104B2, “Method for producing an aqueous suspension concentrate formulation of a pyripyropene insecticide” (BASF SE, priority 2012, dated 2018).

Experiment: Conversion of the aqueous slurry into form B, followed by XRPD
Assay type: physicochemical
Details: 30 parts Insecticide A / 70 parts water, stirred
Procedure: The recorded 2θ values were used to calculate the stated interplanar spacings d. The intensity of the peaks (y-axis: linear intensity counts) is plotted versus the 2θ angle (x-axis in degrees 2θ). The formulation was prepared as follows: • (a) 30 parts by weight of Insecticide A, in the form of a powder, and 70 parts by weight of water were mixed in a vessel to obtain an aqueous slurry. The particle diameter of the particles was in the range 30-800 μm. […] The temperature of grinding head was controlled at 5° C. The milling was stopped when an average particle size of 1.5-2 μm (volume average) had been achieved (measured with Malvern Mastersizer 2000). To the thus obtained suspension the remaining antifoaming agent, the preservative and the thickener and water were added to with stirring to ensure homogeneous distribution of components. The amount of water was chosen that the final concentration of the pyripyropene derivative in the formulation was 100 g/l.

C[C@]1(COC(=O)C2CC2)[C@@H]2C[C@H](O)[C@@]3(C)Oc4cc(-c5cccnc5)oc(=O)c4[C@H](O)[C@@H]3[C@@]2(C)CC[C@@H]1OC(=O)C1CC1 [Insecticide A]
Conversion time (conversion of at least 90% into form B) (20° C.): <190 h
Conversion time (conversion of at least 90% into form B) (40° C.): <48 h
Conversion time (conversion of at least 90% into form B) (60° C.): 12 h
